“Also recorded” adds a separate entry of the source. Like-named read-outs stand apart in the source and are kept apart here. Residues, ends and D or L forms follow the SMILES beside them. *: point of attachment. X1 = CN(C)c1ccc2c(-c3ccc(N4C(=O)CC(*)C4=O)cc3C(=O)[O-])c3ccc(=[N+](C)C)cc-3oc2c1; 5FAM = O=C1OC2(c3ccc(O)cc3Oc3cc(O)ccc32)c2ccc(C(=O)*)cc21
Assays:
SpGpsB1-63 = molecular target: T1, SpGpsB1-63 (Streptococcus pneumoniae, UniProt Q8DR57); experiment: Fluorescence polarisation binding to SpGpsB1-63; details: FP
T1 construct: The SpGpsB1-63 expression construct (pET28SpGpsB1-63) was prepared by PCR amplification of gpsB; His6 (N, cleaved yes); made in house; host or cells: E. coli BL21(DE3)
Description: (§1) 75 the BsGpsB5-64:BsPBP11-17 complex.

[1] = Circular dichroism of PBP peptides (helicity); assay type: physicochemical; details: CD, 222 nm, 4 °C, 20 mM sodium phosphate pH 7.3, 25 μM peptide
Protocol: CD spectra were recorded on a JASCO J-810 spectropolarimeter with a PTC-4235 Peltier temperature controller using 1 mm path length quartz cuvettes. For full wavelength scans a scan speed of 10 nm^−1min^−1 and a response time of 4 s were used, the final spectra were the average of at least four measurements. BsPBP1_1-32 CD spectra were recorded at 4 °C in a buffer of 20 mM sodium phosphate, pH 7.3 at a peptide concentration of 25 μM. Peptide helical contents were estimated from molar ellipticities at 222 nm using the equation helix = [θ]222 nm / (39,500(1–2.57/n))[78] where n is the number of residues in the peptide. LmPBPA1_1-15 CD spectra were analysed at 40 μM in 20 mM sodium phosphate buffer, pH 7.8, for samples containing 0, 40 and 60% trifluoroethanol (TFE). For samples containing 80% TFE, 5 mM sodium phosphate buffer, pH 7.8, was used. The CD spectra of BsGpsB1-68 proteins were measured at a concentration of 4.5 μM in a buffer of 20 mM sodium phosphate (pH 7.8) 150 mM NaCl. For thermal melt experiments, a response time of 8 s and scan rate of 1 °C^−1min^−1 were used. All thermal melts were reversible as CD spectra recorded before and after the melts in the wavelength range 200–240 nm could be superimposed.

BsGpsB1-68 = molecular target: T2, BsGpsB1-68 (Bacillus subtilis, UniProt P0CI74); assay type: binding; details: FP, relative to wild-type peptide
T2 construct: His6 (N, cleaved yes); made in house; host or cells: E. coli BL21(DE3)
Description: as §1

LmGpsB = experiment: BACTH (bacterial two-hybrid) interaction with LmGpsB; assay type: cell-based, Listeria monocytogenes; details: E. coli BTH101, 30 °C, photographed after 24 and 48 h; LmPBPA1 variants as T25-PBPA1ΔGT-TP
Description: The BACTH system[63] was used for analysis of protein:protein interactions. First, LmGpsB was screened against LmPBPA1 (lmo1892) variants to identify residues in LmPBPA1 that are important for binding LmGpsB. To facilitate screening, we used a T25 fragment of Bordetella pertussis adenylate cyclase that had been fused to the N-terminal 91 amino acids of LmPBPA1 to create a T25-LmPBPA1 fusion containing the N-terminal cytoplasmic mini-domain and the transmembrane helix, but lacking lacking the extracellular glycosyltransferase and transpeptidase domains (T25-PBPA1ΔGT-TP) in plasmid pSH437[21]. LmPBPA1 residues that corresponded to the BsGpsB binding motif of BsPBP1 (Thr7, Arg8, Tyr11, Arg12) and additional positively charged amino acids (Lys14, Lys20, Lys21, Lys22, Lys25, Arg26, Lys28 and Arg29) in T25-PBP A1ΔGT-TP were replaced with alanine prior to screening against GpsB-T18. The pSH437 plasmid was mutated by Quikchange mutagenesis using the primer pairs SHW744/SHW754 (T7A, pSH485), SHW746/SHW747 (R8A, pSH486), SHW755/SHW756 (Y11A, pSH487), SHW748/SHW749 (R12A, pSH488), SHW757/SHW758 (K14A, pSH489), SHW759/SHW760 (K20A, pSH490), SHW761/SHW762 (K21A, pSH491), SHW763/SHW764 (K22A, pSH492), SHW765/SHW766 (K25A, pSH493), SHW767/SHW768 (R26A, pSH494), SHW769/SHW770 (K28A, pSH495) and SHW771/SHW772 (R29A, pSH496).
pJR164 and pJR169 were constructed by cloning sepF (primers JR334/JR335 and XbaI/KpnI digestion) into pKT25 and p25-N, respectively. pJR165 and pJR170 were generated by cloning ezrA into pKT25 and p25-N, respectively, using primers JR339/JR340 and XbaI/KpnI for digestion. pJR172 and pJR174 were obtained by cloning zapA into pKT25 and p25-N, respectively, using primers JR337/JR338 and PstI/KpnI. pJR213 was constructed by amplification of divIB with primers JR353/JR354 and cloning into pKT25 using XbaI/KpnI. pJR214 was generated by PCR amplification of divIC with primers JR355/JR356 and cloning into pKT25 using XbaI/KpnI. mreBH was amplified by PCR using oligonucleotides JR368/JR369 and cloned into pKT25 and p25-N using XbaI/KpnI, resulting in pJR233 and pJR236, respectively. pJR242 and pJR243 were obtained by cloning mreC into pKT25 and p25-N, respectively, using primers JR364/JR365 and PstI/KpnI digestion. pbpA2 was cloned into pKT25 using oligonucleotides SHW153/SHW154 and XbaI/KpnI to create pJR250. pbpB1 was amplified with primers SHW157/SHW158 and cloned with SmaI/EcoRI into pKT25, yielding pSH236. pbpB2 was amplified with primers SHW155/SHW156 and cloned into pKT25 after PstI/BamHI digestion, yielding plasmid pSH235. pbpB3 was amplified using primers SHW159/160 and cloned by PstI/BamHI digestion into pKT25, resulting in pSH237. Finally, pSH484 was obtained by removing the N-terminal domain from gpsB present on plasmid pSH226 in a PCR with the primer pair SHW752/SHW753.
Plasmids encoding the respective genes fused to the N- or C-termini of the T18- or the T25-fragment of the Bordetella pertussis adenylate cyclase were co-transformed into E. coli BTH101. Transformants were selected on LB agar plates containing ampicillin (100 µg^−1mL^−1), kanamycin (50 µg^−1mL^−1), X-Gal (40 µg^−1mL^−1) and IPTG (0.1 mM) and photographs were taken after 24 and 48h growth at 30 °C. The BACTH experiments in Fig. 2b and Supplementary Figure 3C, D were repeated at least twice.

Molecule: CC[C@H](C)[C@H](NC(=O)[C@H](CC(C)C)NC(=O)[C@H](CCCNC(=N)N)NC(=O)[C@H](CCSC)NC(=O)CNC(=O)c1ccc2c(c1)C(=O)OC21c2ccc(O)cc2Oc2cc(O)ccc21)C(=O)N[C@@H](CS)C(=O)N[C@@H](CCSC)C(=O)N[C@@H](CCCNC(=N)N)C(=O)N[C@@H](CCCCN)C(=O)N[C@@H](Cc1ccccc1)C(=O)N[C@@H](CC(N)=O)C(=O)N[C@@H](CO)C(=O)N[C@@H](Cc1c[nH]cn1)C(=O)N[C@@H](CO)C(=O)N[C@H](C(=O)N1CCC[C@H]1C(=O)N[C@H](C(=O)N[C@@H](CCCNC(=N)N)C(=O)O)[C@@H](C)CC)[C@@H](C)CC [Fluorescein-SpPBP2b1-17] (5FAM-GMRLICMRKFNSHSIPIR-OH; N-terminus and C-terminus assumed)
- binding to SpGpsB1-63 (in words) (SpGpsB1-63): not

Molecule: CSCC[C@H](NC(=O)[C@H](CO)NC(=O)CN)C(=O)N[C@@H](C)C(=O)N[C@@H](CC(=O)O)C(=O)N[C@@H](CCC(N)=O)C(=O)N[C@@H](Cc1ccccc1)C(=O)N[C@@H](CC(N)=O)C(=O)N[C@@H](C)C(=O)N[C@@H](CCCNC(=N)N)C(=O)N[C@@H](CCC(=O)O)C(=O)N[C@@H](C)C(=O)N[C@@H](CCCNC(=N)N)C(=O)N[C@@H](CCCNC(=N)N)C(=O)N[C@@H](CCCCN)C(=O)N[C@@H](C)C(=O)N[C@@H](CC(N)=O)C(=O)N[C@@H](CSC1CC(=O)N(c2ccc(-c3c4ccc(=[N+](C)C)cc-4oc4cc(N(C)C)ccc34)c(C(=O)[O-])c2)C1=O)C(=O)N[C@@H](CCCCN)C(=O)N[C@@H](CO)C(=O)N[C@@H](CO)C(=O)N1CCC[C@H]1C(=O)N[C@@H](CO)C(=O)N1CCC[C@H]1C(=O)N[C@@H](CCCCN)C(=O)N[C@@H](CCCCN)C(=O)NCC(=O)N[C@@H](CCCCN)C(=O)N[C@@H](CCCCN)C(=O)N[C@@H](CCCNC(=N)N)C(=O)N[C@@H](CCCCN)C(=O)N[C@@H](CCCCN)C(=O)NCC(=O)NCC(=O)O (stereo partly drawn) [TAMRA-BsPBP11-32 Ser7Ala] (H-GSMADQFNAREARRKANC(X1)KSSPSPKKGKKRKKGG-OH)
- helical residues corresponding to helical content [1]: ~ 6 residues
- α-helical content ([1]; average of at least four measurements): 19%
- reduction in affinity for BsGpsB1-68 (BsGpsB1-68; listed as BsPBP1_1-32^Ser7Ala): at least 6 fold
- reduction in affinity for BsGpsB1-68 (BsGpsB1-68; listed as BsPBP11-32Ser7Ala): > 5 fold

B1: LmSepF: L. monocytogenes SepF (protein)
chain: MGLSNKFKSFFFLDEEEEYYEEEVAREPEPMQKKTKKEKPNKNRFYAVEEDDAKVVSMQGAQFSSRMVLAEPRVYAEAQELADYLKEYKSVVVNLQRISHDQATRIVDFLSGTVYALGGDIQRVGNNIFLCTPDNVEVDGSISEMLDEQNFM
modifications: left off: T25 fragment of Bordetella pertussis adenylate cyclase (vectors pKT25 and p25-N), end not stated, kept
notes: L. monocytogenes SepF
- BACTH interaction with LmGpsB (LmGpsB): turned blue after one day of incubation

B2: LmGpsB: L. monocytogenes GpsB (self-interaction) (protein)
chain: MTSEQFEYHLTGKEILEKEFKTGLRGYSPEDVDEFLDMVIKDYSTFTQEIEALQAENIRLVQELDNAPLRTSTQPAPTFQAAAQPAGTTNFDILKRLSNLEKHVFGNKLDDNE
modifications: left off: T18 fragment of Bordetella pertussis adenylate cyclase, C-terminal, kept
- BACTH interaction with LmGpsB (LmGpsB): turned blue after one day of incubation

B3: LmDivIB: L. monocytogenes DivIB (protein)
chain: MAENKRVISIENRIPELKKYRKKKLVRHLAILIGIFVILIAITLYFLSPLSKLDKIAVSGNKQLTENEVRKESGLEIGEFVIGISNGKTEDALKKNTLIKDATVSKEGLNDVQINITEFKTIGYQQQDGKYYDVLESGIMLTDQPRQFPIGNDLLFQNFKNGKTLEKMVDQINKLPKDVVSSISEVIYSPTKSDKNHIKLYMNDGNQVSADISTFAEKMQHYPAIVAQLAKGQKGVIDIEVGSYFQSYYQQNAEKKATEEAAKEKKETNE
modifications: left off: T25 fragment of Bordetella pertussis adenylate cyclase (vector pKT25), end not stated, kept
notes: L. monocytogenes DivIB
- BACTH interaction with LmGpsB (LmGpsB): turned blue after 2 days incubation

B4: LmMreC: L. monocytogenes MreC (protein)
chain: MPQFFLNKRLIILLISIIVLVALVGFSLRDRENASWPEQFVKDVVGFGENIVAKPTSFISGAVDGVVDLKNTYTENQHLKERLEELAQLESEVADLKKENKDLKESLDITDSIRDYDPLNASVISRNPTNWNDQVEIDKGSSDGVKPDMAVTTPSGLIGKVTTTGAKSATVELLTSSDVKNRVSAKVQGKENAFGIINGYDSDTKLLELKQLPYDMKFKKGQKVVTSGLGGKFPAGIFIGTIEKVETDKMGLSQTAFIKPGADMYDLNHVTVLKRSAEAGTTDDDTTSSDTTGGQ
modifications: left off: T25 fragment of Bordetella pertussis adenylate cyclase (vectors pKT25 and p25-N), end not stated, kept
notes: L. monocytogenes MreC
- BACTH interaction with LmGpsB (LmGpsB): turned blue after one day of incubation; also recorded: turned blue after 2 days incubation

— PMC6335420, “The cell cycle regulator GpsB functions as cytosolic adaptor for multiple cell wall enzymes” (Nature Communications, 2019)
